Where “and” joins values, the source holds several entries; their conditions need not be identical. Equal entries are not always repeated. Toxic doses and inconclusive results are not listed. Rule for the calls: active = survival T/C of 150% or more; inactive = T/C below 125% in these data.
Test system: P388 leukemia ip, CD2F1 mice, survival T/C
Assay: NCI In Vivo Anticancer Drug Screen. Data for tumor model P388 Leukemia (intraperitoneal) in CD2F1 (CDF1) mice
Conditions: endpoint: median survival time, higher = longer survival
How it was run: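 Mice carrying the transplanted tumor received test compound or vehicle. Survival was recorded in each group, and the value is the treated-group measurement divided by that of the vehicle-treated control group.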

[1] = dose: 12.5 mg/kg/injection, schedule: Q01DX009 (ip), vehicle: saline with Tween-80
[2] = dose: 25.0 mg/kg/injection, schedule: Q01DX009 (ip), vehicle: saline with Tween-80
[3] = dose: 50.0 mg/kg/injection, schedule: Q01DX009 (ip), vehicle: saline with Tween-80
[4] = dose: 60.0 mg/kg/injection, schedule: Q01DX005 (ip), vehicle: Klucel (hydroxypropylcellulose) (HPC)
[5] = dose: 100.0 mg/kg/injection, schedule: Q04DX002 (ip), vehicle: saline with Tween-80
[6] = dose: 60.0 mg/kg/injection, schedule: Q01DX005 (ip), vehicle: saline with Tween-80
[7] = dose: 120.0 mg/kg/injection, schedule: Q01DX005 (ip), vehicle: saline with Tween-80
[8] = dose: 240.0 mg/kg/injection, schedule: Q01DX005 (ip), vehicle: saline with Tween-80
[9] = dose: 100.0 mg/kg/injection, schedule: Q01DX009 (ip), vehicle: saline with Tween-80
[10] = dose: 200.0 mg/kg/injection, schedule: Q01DX009 (ip), vehicle: saline with Tween-80
[11] = dose: 400.0 mg/kg/injection, schedule: Q01DX009 (ip), vehicle: saline with Tween-80
[12] = dose: 50.0 mg/kg/injection, schedule: Q01DX005 (ip), vehicle: Klucel (hydroxypropylcellulose) (HPC)
[13] = dose: 100.0 mg/kg/injection, schedule: Q01DX005 (ip), vehicle: Klucel (hydroxypropylcellulose) (HPC)
[14] = dose: 200.0 mg/kg/injection, schedule: Q01DX005 (ip), vehicle: Klucel (hydroxypropylcellulose) (HPC)
[15] = dose: 50.0 mg/kg/injection, schedule: Q04DX002 (ip), vehicle: saline with Tween-80
[16] = dose: 6.25 mg/kg/injection, schedule: Q01DX005 (ip), vehicle: Klucel (hydroxypropylcellulose) (HPC)
[17] = dose: 12.5 mg/kg/injection, schedule: Q01DX005 (ip), vehicle: Klucel (hydroxypropylcellulose) (HPC)
[18] = dose: 25.0 mg/kg/injection, schedule: Q01DX005 (ip), vehicle: Klucel (hydroxypropylcellulose) (HPC)

Measured: T/C

CN1C(=O)N(C2CCCCC2)C(=O)C(C)(CN2CCCCC2)C1=O (stereo unspecified)
inactive: [1] 102 % of control | [2] 100 % of control | [3] 102 % of control | dose: 50.0 mg/kg/injection, schedule: Q01DX009 (sc), vehicle: saline with Tween-80 100 % of control | dose: 200.0 mg/kg/injection, schedule: Q01DX009 (sc), vehicle: saline with Tween-80 108 % of control

Fc1ccccc1N=Cc1ccc(C=Nc2ccccc2F)cc1
inactive: dose: 15.0 mg/kg/injection, schedule: Q01DX005 (ip), vehicle: Klucel (hydroxypropylcellulose) (HPC) 100 % of control | dose: 30.0 mg/kg/injection, schedule: Q01DX005 (ip), vehicle: Klucel (hydroxypropylcellulose) (HPC) 92 % of control | [4] 95 % of control

COC(=O)/C=C/c1oc(=O)c(CO)c(OC)c1CO
inactive: dose: 20.0 mg/kg/injection, schedule: Q01DX009 (ip), vehicle: Klucel (hydroxypropylcellulose) (HPC) 119 % of control | dose: 40.0 mg/kg/injection, schedule: Q01DX009 (ip), vehicle: Klucel (hydroxypropylcellulose) (HPC) 119 % of control | dose: 80.0 mg/kg/injection, schedule: Q01DX009 (ip), vehicle: Klucel (hydroxypropylcellulose) (HPC) 111 % of control

CCN(CC)CC(COC)Oc1cc(C)ccc1C(C)C (stereo unspecified)
inactive: dose: 50.0 mg/kg/injection, schedule: Q04DX003 (ip), vehicle: saline with Tween-80 104 % of control | dose: 100.0 mg/kg/injection, schedule: Q04DX003 (ip), vehicle: saline with Tween-80 95 % of control | dose: 200.0 mg/kg/injection, schedule: Q04DX003 (ip), vehicle: saline with Tween-80 109 % of control

O=C(NCCNC(=S)Nc1ccccc1)C(=O)NCCNC(=S)Nc1ccccc1
inactive: dose: 50.0 mg/kg/injection, schedule: Q01DX001 (ip), vehicle: Klucel (hydroxypropylcellulose) (HPC) 91 % of control | dose: 100.0 mg/kg/injection, schedule: Q01DX001 (ip), vehicle: Klucel (hydroxypropylcellulose) (HPC) 91 % of control | dose: 200.0 mg/kg/injection, schedule: Q01DX001 (ip), vehicle: Klucel (hydroxypropylcellulose) (HPC) 91 % of control

COc1cc2c3c(c1)-c1c(ccc(OC)c1O)CC3N(C)CC2 (stereo unspecified)
inactive: dose: 6.25 mg/kg/injection, schedule: Q04DX003 (ip), vehicle: DMSO 101 % of control | dose: 12.5 mg/kg/injection, schedule: Q04DX003 (ip), vehicle: DMSO 101 % of control | dose: 25.0 mg/kg/injection, schedule: Q04DX003 (ip), vehicle: DMSO 100 % of control | dose: 50.0 mg/kg/injection, schedule: Q04DX003 (ip), vehicle: DMSO 100 % of control

COC(=O)c1nn(-c2ccccc2)c2nc3ccccc3c-2c1C(=O)OC
inactive: [5] 108 % of control | dose: 200.0 mg/kg/injection, schedule: Q04DX002 (ip), vehicle: saline with Tween-80 108 % of control | dose: 400.0 mg/kg/injection, schedule: Q04DX002 (ip), vehicle: saline with Tween-80 97 % of control

CCN(CC)CCOc1ccc(N=Nc2ccc(N)nc2N)cc1
inactive: [6] 102 % of control | [7] 93 % of control | [8] 101 % of control

C/C(=N\O)C1(C)CC=CCC1CO (stereo unspecified)
inactive: [9] 95 % of control | [10] 100 % of control | [11] 100 % of control

CNC(=O)Nc1nncs1
inactive: [6] 106 % of control | [7] 104 % of control | [8] 106 % of control

COc1ccc(C=C2C(=O)N(C)C(=O)N(C)C2=O)cc1
inactive: [3] 112 % of control | [9] 118 % of control

Nc1ncnc2c1ncn2CC(O)CBr (stereo unspecified)
inactive: [12] 101 % of control | [13] 104 % of control | [14] 93 % of control

CCCC(=O)c1cc(-c2cc(C(=O)CCC)nc(N)n2)nc(N)n1
inactive: [6] 99 % of control | [7] 107 % of control

O=C1NC(=O)C2C1C(C(=O)O)C1C3C(=O)NC(=O)C3C1C2C(=O)O (stereo unspecified)
inactive: [2] 91 % of control | [3] 94 % of control | [9] 97 % of control | [10] 91 % of control and 92 % of control | [11] 96 % of control

FC(F)(F)C1(C(F)(F)F)N=CC=CN1
inactive: dose: 50.0 mg/kg/injection, schedule: Q01DX009 (ip), vehicle: distilled water + alcohol 101 % of control | dose: 100.0 mg/kg/injection, schedule: Q01DX009 (ip), vehicle: distilled water + alcohol 95 % of control

CC(C)C(Nc1ncnc2c1CCc1ccccc1-2)C(=O)O (stereo unspecified)
inactive: [15] 95 % of control | [5] 100 % of control

C/C(=N\NC(N)=O)C1(c2ccccc2)CCN(C)CC1
inactive: dose: 100.0 mg/kg/injection, schedule: Q04DX002 (ip), vehicle: Klucel (hydroxypropylcellulose) (HPC) 100 % of control | dose: 200.0 mg/kg/injection, schedule: Q04DX002 (ip), vehicle: Klucel (hydroxypropylcellulose) (HPC) 97 % of control | dose: 400.0 mg/kg/injection, schedule: Q04DX002 (ip), vehicle: Klucel (hydroxypropylcellulose) (HPC) 96 % of control

COc1ncnc2c1ccn2C1OC(CO)C(O)C1O (stereo unspecified)
inactive: [16] 107 % of control | [17] 89 % of control

c1ccc2c(c1)C1CCC2[n+]2ccccc21 (stereo unspecified)
inactive: [16] 108 % of control | [17] 106 % of control | [18] 110 % of control

O=C(O)C12C=CC(CC1)CC2
inactive: [4] 99 % of control | dose: 120.0 mg/kg/injection, schedule: Q01DX005 (ip), vehicle: Klucel (hydroxypropylcellulose) (HPC) 105 % of control | dose: 240.0 mg/kg/injection, schedule: Q01DX005 (ip), vehicle: Klucel (hydroxypropylcellulose) (HPC) 100 % of control

Cn1c(O)c2c(c1O)C(=Nc1ccccc1)c1ccccc1C2=O
inactive: [12] 86 % of control | [13] 89 % of control | [14] 94 % of control

CCOc1ccc(NC(=O)C(=O)NNC(=S)NC)cc1
inactive: [1] 94 % of control | [2] 92 % of control | [3] 92 % of control and 97 % of control

O=c1ccn(C2OC(COC(c3ccccc3)(c3ccccc3)c3ccccc3)C(OC(c3ccccc3)(c3ccccc3)c3ccccc3)C2O)c(=O)[nH]1 (stereo unspecified)
inactive: [18] 99 % of control | [12] 95 % of control | [13] 105 % of control | [14] 97 % of control

[Cl][Pt+2][Cl].[NH-]c1ccc(S(=O)(=O)O)cc1[NH-]
inactive: dose: 6.25 mg/kg/injection, schedule: Q04DX002 (ip), vehicle: saline with Tween-80 102 % of control | dose: 12.5 mg/kg/injection, schedule: Q04DX002 (ip), vehicle: saline with Tween-80 111 % of control | dose: 25.0 mg/kg/injection, schedule: Q04DX002 (ip), vehicle: saline with Tween-80 119 % of control | [15] 124 % of control

COc1cc2ccc3c4c(OC)c(OC)c(OC)cc4c[n+](C)c3c2cc1OC
inactive: dose: 2.0 mg/kg/injection, schedule: Q01DX009 (ip), vehicle: water 111 % of control | dose: 4.0 mg/kg/injection, schedule: Q01DX009 (ip), vehicle: water 113 % of control | dose: 8.0 mg/kg/injection, schedule: Q01DX009 (ip), vehicle: water 110 % of control | dose: 16.0 mg/kg/injection, schedule: Q01DX009 (ip), vehicle: water 118 % of control

CC(C)C(=O)[O][Bi]([c]1ccccc1)[c]1ccccc1
inactive: [16] 108 % of control and 110 % of control | [17] 101 % of control and 113 % of control | [18] 105 % of control and 113 % of control
